Results reported in ChEMBL document CHEMBL1126535, “Angiotensin II receptor antagonists containing a phenylpyridine element” (Bioorg Med Chem Lett, 1993).

Columns and labels:
[1] = biological target: T1, Type-1 angiotensin II receptor (Oryctolagus cuniculus, UniProt P34976); assay: In vitro binding affinity towards Angiotensin II type 1-AT1 receptor determined as its ability to displace 125I-Sarl,Ile8-AII from the receptor expressed in rabbit aorta membrane.; format: cell membranes
T1 sequence (P34976 whole entry): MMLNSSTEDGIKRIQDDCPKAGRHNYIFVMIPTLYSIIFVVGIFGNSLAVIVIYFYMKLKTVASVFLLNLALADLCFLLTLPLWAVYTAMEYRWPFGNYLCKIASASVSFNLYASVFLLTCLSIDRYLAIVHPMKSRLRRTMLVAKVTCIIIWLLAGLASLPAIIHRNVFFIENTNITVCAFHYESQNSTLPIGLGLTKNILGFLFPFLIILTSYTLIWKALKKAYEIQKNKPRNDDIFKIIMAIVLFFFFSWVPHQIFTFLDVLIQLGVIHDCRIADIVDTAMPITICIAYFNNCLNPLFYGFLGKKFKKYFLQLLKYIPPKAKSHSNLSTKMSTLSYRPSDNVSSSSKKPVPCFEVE

[2] = biological target: T2, Type-2 angiotensin II receptor (Rattus norvegicus, UniProt P35351); assay: In vitro binding affinity towards Angiotensin II receptor, type 2 determined as its ability to displace 125I-Sarl,Ile8-AII from the receptor expressed in rat midbrain membrane.; format: cell membranes
T2 sequence (P35351 whole entry): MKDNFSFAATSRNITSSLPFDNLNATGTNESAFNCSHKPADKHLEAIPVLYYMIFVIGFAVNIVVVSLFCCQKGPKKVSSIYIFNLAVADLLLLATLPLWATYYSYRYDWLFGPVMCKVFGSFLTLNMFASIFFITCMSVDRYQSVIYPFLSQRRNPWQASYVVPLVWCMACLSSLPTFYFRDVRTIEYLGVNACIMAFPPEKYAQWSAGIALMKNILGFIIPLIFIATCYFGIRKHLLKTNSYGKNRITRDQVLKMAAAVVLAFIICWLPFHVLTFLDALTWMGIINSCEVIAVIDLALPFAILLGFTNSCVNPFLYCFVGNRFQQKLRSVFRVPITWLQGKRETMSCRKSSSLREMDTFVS

Rattus norvegicus = assay: In vivo potency for the inhibition of pressor response in normotensive rats (i.v.); format: functional

Row | Compound | IC50 [1] [nM] | IC50 [2] [nM] | Activity (Rattus norvegicus) [mg/kg]
1 | CCCc1nc2c(C)ccnc2n1Cc1ccc(-c2ccccc2-c2nn[nH]n2)cc1 | 1 |  | 
2 | CCCc1nc2c(C)ccnc2n1Cc1ccc(-c2ncccc2-c2nn[nH]n2)cc1 |  | > 20000 | 
3 | CCCc1nc2c(C)ccnc2n1Cc1ccc(-c2ccncc2-c2nn[nH]n2)cc1 | 4 | > 20000 | 0.1
4 | CCCc1nc2c(C)ccnc2n1Cc1ccc(-c2cccnc2-c2nn[nH]n2)cc1 | 60 | > 20000 | 
5 | CCc1nc2c(C)cc(C)nc2n1Cc1ccc(-c2ccccc2-c2nnn[nH]2)cc1 [L-158809] |  | > 20000 | 
